Entries after “also recorded” stand apart in the source; their conditions may differ. Read-outs that look alike come from different tables or passages of the source.
Tests used:
P2Y1 receptor [1] = molecular target: T1, P2Y1 receptor (Homo sapiens, UniProt P47900); assay: [3H]2MeSADP radioligand binding at the P2Y1 receptor (U2OS membranes); design: expressed in transfected cells; host or cells: U2OS cells (membrane preparation); settings: for IC50: average; for inhibitory effect on [3H]2MeSADP binding to the P2Y1 receptor (initial binding results): in words
Protocol: (§1) Both P2Y1 and P2Y12 receptors play important roles in platelet aggregation. Therefore, we also tested the potential effects of SAA, SAB and SAC on the P2Y1 receptor. […] SAA and SAC antagonized 2MeSADP-induced accumulation of inositol 1-phosphate (IP-1) (Fig. 2e). KB values calculated by Schild analysis for the P2Y1 receptor were 9.1 ± 1.5 and 15.6 ± 2.0 µM for SAA and SAC, respectively (Fig. 2f). Thus, the Schild analysis of the antagonist potencies of SAA and SAC for Gq-coupled P2Y1 and Gi-coupled P2Y12 receptors was consistent with their binding affinities measured in the radioligand assays.
(§2) U2Os cells expressing the P2Y1 or P2Y12 receptors were cultured in DMEM supplemented with 10% fetal bovine serum, 100 Units/ml penicillin, 100 µg/ml streptomycin and 2 µmol/ml glutamine. After reaching confluence, cells were detached from plates by scraping into PBS and centrifuged at 250 g for 5 min. The resulting pellets were re-suspended in ice-cold Tris-HCl buffer (50 mM, pH 7.4) and homogenized. After homogenization and suspension, cells were centrifuged at 1000 g for 10 min and the pellet was discarded. The suspension was re-centrifuged at 20,000 g for 60 min at 4 °C. The pellets were re-suspended, split into aliquots and stored at −80 °C. The protein concentration was measured using the Bradford assay. For P2Y1 and P2Y12 receptor binding assays, saturation curves were measured by addition of various concentrations of 50 µl [^3H]2MeSADP (specific activity, 7.5 Ci/mmol; Movarek Biochemicals, Brea, CA) and 100 μl of membrane suspension to a total of 200 μl of total assay volume. Non-specific binding was determined using 10 µM MRS2500 (Tocris; St. Louis, MO) for the P2Y1 receptor and 10 μM SAR216471 (Tocris; St. Louis, MO) for the P2Y12 receptor. For the displacement assay, various concentrations of inhibitors were incubated with [^3H]2MeSADP (1.0 nM for P2Y1; 0.4 nM for P2Y12) and membrane preparations (20 µg/sample) at 25 °C for 60 min. The separation of bound from free radioligand was accomplished by rapid vacuum filtration of the incubation mixture over GF/B filter using a Brandel cell harvester (Brandel Inc., Gaithersburg, MD). Filters were washed two times with 3 ml of ice-cold Tris-HCl buffer, pH 7.5. Radioactivity on the filters was quantified using a Tri-carb Liquid Scintillation Counter (PerkinElmer Life and Analytical Sciences). 2MeSADP was purchased from Sigma (St. Louis, MO). All other materials were from standard commercial sources and of analytical grade. For radioligand binding, calculation of apparent binding affinities, Ki = IC50/(1 + [radioligand]/Kd), was performed using the nonlinear iterative curve-fitting program of Prism (GraphPad Software Inc., San Diego, CA).
Figure S2. The effects of Tween -20 on the inhibition by SAA (a) and SAC (b) of
[3H]2MeSADP binding to the human P2Y1 recept or. Data are ex pressed Me an ± SD from
2- 3 independent experiments. The average IC50 values of SAA in the absence and
presence of 0.01% Tween- 20 are 21.2 and 19.3 μM, respectivel y. The IC50 values of
SAC in the absence and p resence of 0.01% Tween- 20 are 29.4 and 23.7 μM, respectivel y.
The c ritical micelle concentration (CMC) of Tween -20 is 0.0074%.
(§3) (1 picture or pasted object on this page, not shown here)

P2Y12 receptor [2] = molecular target: T2, P2Y12 receptor (Homo sapiens, UniProt Q9H244); assay: Antagonism of 2MeSADP-induced inhibition of forskolin-stimulated cAMP accumulation, Schild analysis; format: cell-based; design: expressed in transfected cells; host or cells: U2OS cells
Protocol: The functional antagonism of these three salvianolic acids against the P2Y12 receptor was measured by their effect on agonist-induced inhibition of forskolin-stimulated cyclic AMP accumulation in P2Y12 receptor-expressing U2OS cells. For example, in a concentration-dependent manner, SAA shifted the agonist response curve to the right without affecting its maximum agonist effect (Fig. 2b). This observation is consistent with competitive antagonism, but allosteric antagonism cannot be excluded. Schild analysis of the antagonism yielded KB values of 24.2 ± 5.9, 33.6 ± 6.4 and 23.7 ± 4.5 µM for SAA, SAB and SAC, respectively (Fig. 2c).
U2Os cells expressing the P2Y12 receptor were cultured in DMEM medium containing 10% fetal bovine serum, 100 units/ml penicillin, 100 µg/ml streptomycin and 2 µmol/ml glutamine. For the assay of cAMP accumulation, cells were plated in 96-well plates in 100 µl medium overnight. Cells were then treated with assay buffer containing rolipram ([…]) and antagonists for 20 min followed by the addition of agonists and incubate for 10 min. After 10 min incubation with agonist, Forskolin (10 μM) was added to the mixture and the incubation was continued for another 10 min. The reaction was terminated upon removal of the supernatant and addition of 100 µl Tween-20 (0.3%). Intracellular cAMP levels were measured with an ALPHAScreen cAMP assay kit as instructed by the manufacturer (PerkinElmer). Binding and functional parameters were calculated using Prism 7.0 software (GraphPAD, San Diego, CA, USA). Data were expressed as mean ± sem.

[3] = design: method as in PMID 21569331; settings: rat plasma, cited from earlier work
P2Y1 receptor [4] = molecular target: T1, P2Y1 receptor; assay: Antagonism of 2MeSADP-induced IP-1 accumulation, Schild analysis; format: cell-based; design: expressed in transfected cells; host or cells: U2OS cells
Protocol: as §1
Inositol 1-phosphate (IP-1) was measured using the IP-One Tb HTRF kit (Cisbio Bioassays, Bedford, MA) as described previously[60],[61]. Briefly, after overnight growth, U2Os cells expressing the P2Y1 receptor were first treated with an antagonist for 20 min before the treatment with agonist and incubated for another 60 min. IP-1 detection reagents were added as instructed by the manual from the manufacturer. The assay plates were read on a Mithras LB940 reader (Berthold Technologies, Oak Ridge, TN) using a time-resolved fluorescence ratio (665/620 nm).

P2Y12 receptor [5] = molecular target: T2, P2Y12 receptor; assay: [3H]2MeSADP radioligand binding at the P2Y12 receptor (U2OS membranes); design: expressed in transfected cells; host or cells: U2OS cells (membrane preparation)
Protocol: The eleven selected components were further examined in radioligand binding and functional assays. We initially tested the eleven compounds by measuring the inhibition of [^3H]2-methylthioadenosine 5′-diphosphate (2MeSADP) binding at the human P2Y12 receptor (Fig. 1b).
as §2

adrenergic α1B receptor = molecular target: T3, adrenergic α1B receptor (Homo sapiens, UniProt P35368); assay: FLIPR agonist and antagonist assays; format: cell-based
T3 construct: expressed in transfected cells
T3 sequence (P35368 1-520): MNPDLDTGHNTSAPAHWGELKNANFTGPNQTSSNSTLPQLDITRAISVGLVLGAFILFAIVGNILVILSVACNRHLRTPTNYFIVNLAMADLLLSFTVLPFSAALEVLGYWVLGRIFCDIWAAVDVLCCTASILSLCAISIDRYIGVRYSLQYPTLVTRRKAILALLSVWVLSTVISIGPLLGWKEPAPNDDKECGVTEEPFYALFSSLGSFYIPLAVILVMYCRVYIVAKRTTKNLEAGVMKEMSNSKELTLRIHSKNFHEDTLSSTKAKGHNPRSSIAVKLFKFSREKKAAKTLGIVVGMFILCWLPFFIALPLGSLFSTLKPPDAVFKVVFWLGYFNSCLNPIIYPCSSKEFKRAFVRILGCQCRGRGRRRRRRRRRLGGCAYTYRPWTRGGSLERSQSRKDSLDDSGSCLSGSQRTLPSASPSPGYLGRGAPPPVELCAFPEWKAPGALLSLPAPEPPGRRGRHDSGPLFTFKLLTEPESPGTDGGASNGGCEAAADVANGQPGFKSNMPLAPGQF
Protocol: For agonist assay: cell line expressing target receptor was seeded in a 384-well black-wall, clear-bottom plate about 18 hours prior to the day of experiment and maintained at 37 °C/5% CO2. Then, 20 μl of dye-loading solution was added into the wells and the plates were subsequently placed into a 37 °C incubator for 60 min, followed by a 15 min incubation at room temperature. At last, 10 μl of compounds or control agonist were added into respective wells of the assay plate during reading in FLIPR.
For antagonist assay: cell line expressing target receptor was seeded in a 384-well black-wall, clear-bottom plate about 18 hours prior to the day of experiment and maintained at 37 °C/5% CO2. Then the dye-loading solution and 10 μl of control antagonist and test samples were added into respectively wells in sequence. The plates were subsequently placed into a 37 °C incubator for 60 min, followed by a 15 min incubation at room temperature. At last, 12.5 μl of control agonist were added into respective wells of the assay plate during reading in FLIPR.
The fun ctional activit y of SAB on the adrener gi c α1B re ceptor we re tested b y […]

α1B adrenergic receptor = molecular target: T4, α1B adrenergic receptor (Homo sapiens, UniProt P35368); assay: [3H]Prazosin binding assay (PDSP)
T4 construct: Psychoactive Drug Screening Program (PDSP)
T4 sequence (P35368 1-520): T3 sequence (P35368 1-520)
Description: We also tested if SAA, SAB and SAC are promiscuously binding compounds, due to the fact that they all have multiple phenolic groups and are thus potentially PAINS[36]. To find other possible targets of the three compounds, we evaluated their potential binding to 45 diverse receptors, transporters and ion channels (human, unless noted) using radioligand binding assays via the Psychoactive Drug Screening Program (PDSP) (Table S1)[37].
Figure S3. Binding activit y of SAB (compound 44297) to the α1B adrenergic receptor was measured b y [ 3H]Prazosin binding assays for three repeats (a-c). Prazosin is an inverse agonist of the α1B adrenergic receptor. Th e av erage Ki o f SAB was determined […]
as §3

T2 sequence (Q9H244 whole entry): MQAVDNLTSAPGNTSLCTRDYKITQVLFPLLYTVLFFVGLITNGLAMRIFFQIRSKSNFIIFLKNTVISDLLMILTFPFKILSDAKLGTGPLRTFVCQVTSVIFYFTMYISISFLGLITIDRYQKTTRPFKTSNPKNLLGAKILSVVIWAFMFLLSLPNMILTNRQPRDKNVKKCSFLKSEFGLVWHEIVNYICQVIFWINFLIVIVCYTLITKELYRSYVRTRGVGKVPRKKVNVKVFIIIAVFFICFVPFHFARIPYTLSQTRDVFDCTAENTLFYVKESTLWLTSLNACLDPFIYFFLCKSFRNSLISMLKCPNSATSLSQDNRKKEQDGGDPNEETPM
T1 sequence (P47900 whole entry): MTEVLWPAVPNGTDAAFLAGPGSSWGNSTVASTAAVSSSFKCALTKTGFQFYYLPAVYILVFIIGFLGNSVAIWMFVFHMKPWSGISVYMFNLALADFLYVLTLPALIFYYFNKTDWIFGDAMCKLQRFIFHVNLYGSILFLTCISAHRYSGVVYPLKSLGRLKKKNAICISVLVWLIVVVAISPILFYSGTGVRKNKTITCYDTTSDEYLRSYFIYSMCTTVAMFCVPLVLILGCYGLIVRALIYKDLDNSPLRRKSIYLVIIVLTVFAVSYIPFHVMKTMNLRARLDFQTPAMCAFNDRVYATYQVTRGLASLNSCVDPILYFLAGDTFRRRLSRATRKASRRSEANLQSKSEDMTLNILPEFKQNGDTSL

O=C(/C=C/c1ccc(O)c(O)c1/C=C/c1ccc(O)c(O)c1)O[C@H](Cc1ccc(O)c(O)c1)C(=O)O [SAA, salvianolic acid A]
Ki (P2Y1 receptor [1]): 14.7 ± 2.4 µM | IC50 (P2Y1 receptor [1]; IC50, inhibition of [3H]2MeSADP binding to human P2Y1 receptor, absence of Tween-20): 21.2 µM | IC50 (P2Y1 receptor [1]; IC50, inhibition of [3H]2MeSADP binding to human P2Y1 receptor, presence of 0.01% Tween-20): 19.3 µM | inhibitory effect on [3H]2MeSADP binding to the P2Y1 receptor (initial binding results) (P2Y1 receptor [1]): substantial inhibitory effect | Kb (P2Y12 receptor [2]): 24.2 ± 5.9 µM | t1/2 ([3]; 100 mg/kg, p.o.): 3.28 h | Kb (P2Y1 receptor [4]): 9.1 ± 1.5 µM | Ki (P2Y12 receptor [5]): 20.3 ± 1.5 µM | inhibition of [3H]2MeSADP binding at the human P2Y12 receptor (P2Y12 receptor [5]; 100 µM compound): significant inhibitory effect

O=C(C=Cc1ccc(O)c2c1C(C(=O)OC(Cc1ccc(O)c(O)c1)C(=O)O)C(c1ccc(O)c(O)c1)O2)OC(Cc1ccc(O)c(O)c1)C(=O)O (stereo not shown) [SAB, salvianolic acid B]
agonist activity on α1B (adrenergic α1B receptor; FLIPR agonist assay): did not show agonist activity; also recorded: neither agonist nor antagonist | antagonist activity on α1B (adrenergic α1B receptor; FLIPR antagonist assay): did not show antagonist activit y; also recorded: neither agonist nor antagonist | inhibitory effect on [3H]2MeSADP binding to the P2Y1 receptor (initial binding results) (P2Y1 receptor [1]): significantly weaker | Kb (P2Y12 receptor [2]): 33.6 ± 6.4 µM | t1/2 ([3]; 100 mg/kg, i.v.): about 105 min | t1/2 ([3]; 500 mg/kg, p.o.): 4.13 h | Ki (P2Y12 receptor [5]): 36.4 ± 20.3 µM | inhibition of [3H]2MeSADP binding at the human P2Y12 receptor (P2Y12 receptor [5]; 100 µM compound): significant inhibitory effect | Ki (α1B adrenergic receptor): 6.26 ± 1.46 µM

O=C(/C=C/c1ccc(O)c2oc(-c3ccc(O)c(O)c3)cc12)O[C@H](Cc1ccc(O)c(O)c1)C(=O)O [SAC, salvianolic acid C]
IC50 (P2Y1 receptor [1]; absence of Tween-20, read-out: IC50, inhibition of [3H]2MeSADP binding to human P2Y1 receptor): 29.4 µM | inhibitory effect on [3H]2MeSADP binding to the P2Y1 receptor (initial binding results) (P2Y1 receptor [1]): substantial inhibitory effect | IC50 (P2Y1 receptor [1]; presence of 0.01% Tween-20, read-out: IC50, inhibition of [3H]2MeSADP binding to human P2Y1 receptor): 23.7 µM | Ki (P2Y1 receptor [1]; vs [3H]2MeSADP (1.0 nM), read-out: Ki, P2Y1 receptor binding): 23.3 ± 4.5 µM | Kb (P2Y12 receptor [2]): 23.7 ± 4.5 µM | Kb (P2Y1 receptor [4]; U2OS cells expressing P2Y1, IP-1 accumulation, read-out: KB (Schild analysis), P2Y1 receptor): 15.6 ± 2 µM | inhibition of [3H]2MeSADP binding at the human P2Y12 receptor (P2Y12 receptor [5]; 100 µM compound): significant inhibitory effect | Ki (P2Y12 receptor [5]; full inhibition curves vs [3H]2MeSADP (0.4 nM), read-out: Ki, P2Y12 receptor binding): 15.6 ± 6.5 µM

O=C(/C=C/c1ccc(O)c(O)c1)O[C@H](Cc1ccc(O)c(O)c1)C(=O)O [rosmarinic acid]
inhibition at 100 µM (P2Y12 receptor [5]; 100 µM compound): 31.6 ± 6.2%

O=C(O)Cc1c(/C=C/C(=O)O[C@H](Cc2ccc(O)c(O)c2)C(=O)O)ccc(O)c1O [salvianolic acid D]
inhibition of [3H]2MeSADP binding at the human P2Y12 receptor (P2Y12 receptor [5]; 100 µM compound): 33.5 ± 8.6%
